Biological target: human MGL from HeLa cells (Homo sapiens (Human), UniProt Q99685)
Assay: MGL in vitro activity assay ([glycerol-1,3-3H]-oleoyl glycerol hydrolysis, activated carbon filtration)
Type: biochemical
Settings: 300 nM [Glycerol-1,3-3H]-oleoyl glycerol, one hour
Outline: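 Endogenous human MGL in HeLa cells/homogenates incubated 1 h with test compounds and 300 nM [glycerol-1,3-3H]-oleoyl glycerol. Released 3H-glycerol passing an activated carbon filter counted as activity; screening at 10 μM compound, top IC50 concentration set empirically.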

human MGL from HeLa cells, sequence (Q99685 whole entry): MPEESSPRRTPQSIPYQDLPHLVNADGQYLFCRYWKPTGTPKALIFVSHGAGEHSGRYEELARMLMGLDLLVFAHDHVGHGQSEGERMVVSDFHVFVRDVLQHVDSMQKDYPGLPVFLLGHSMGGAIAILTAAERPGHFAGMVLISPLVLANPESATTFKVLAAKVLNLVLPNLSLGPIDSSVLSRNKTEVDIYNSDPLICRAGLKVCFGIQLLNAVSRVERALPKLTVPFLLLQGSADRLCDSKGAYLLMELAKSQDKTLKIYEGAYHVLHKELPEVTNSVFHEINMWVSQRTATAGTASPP

Row | SMILES | IC50
1 | Cc1cccc(CC2CC3(C2)CN(C(=O)[C@H]2C[C@@](C)(O)C2)C3)c1C(F)(F)F [Example 209, ((1s,3s)-3-Hydroxy-3-methylcyclobutyl)(6-(3-methyl-2-(trifluoromethyl)benzyl)-2-azaspiro[3.3]heptan-2-yl)methanone] | 2.2 nM
2 | CC(C)c1c(CC2CC3(C2)CN(C(=O)[C@H]2C[C@@](C)(O)C2)C3)cccc1C(F)(F)F [Example 210, ((1s,3s)-3-Hydroxy-3-methylcyclobutyl)(6-(2-isopropyl-3-(trifluoromethyl)benzyl)-2-azaspiro[3.3]heptan-2-yl)methanone] | 0.8 nM
3 | Cc1ccc(C(F)(F)F)c(CC2CC3(C2)CN(C(=O)[C@H]2C[C@@](C)(O)C2)C3)c1 [Example 211, ((1s,3s)-3-Hydroxy-3-methylcyclobutyl)(6-(5-methyl-2-(trifluoromethyl)benzyl)-2-azaspiro[3.3]heptan-2-yl)methanone] | 4.1 nM
4 | Cc1cc(CC2CC3(C2)CN(C(=O)[C@H]2C[C@@](C)(O)C2)C3)ccc1C(F)(F)F [Example 212, ((1s,3s)-3-Hydroxy-3-methylcyclobutyl)(6-(3-methyl-4-(trifluoromethyl)benzyl)-2-azaspiro[3.3]heptan-2-yl)methanone] | 0.3 nM
5 | Cc1ccc(CC2CC3(C2)CN(C(=O)[C@H]2C[C@@](C)(O)C2)C3)c(C(F)(F)F)c1 [Example 213, ((1s,3s)-3-Hydroxy-3-methylcyclobutyl)(6-(4-methyl-2-(trifluoromethyl)benzyl)-2-azaspiro[3.3]heptan-2-yl)methanone] | 4.1 nM
6 | Cn1nc(C(F)(F)F)cc1CC1CC2(C1)CN(C(=O)[C@H]1C[C@@](C)(O)C1)C2 [Example 214, ((1s,3s)-3-Hydroxy-3-methylcyclobutyl)(6-((1-methyl-3-(trifluoromethyl)-1H-pyrazol-5-yl)methyl)-2-azaspiro[3.3]heptan-2-yl)methanone] | 417 nM
7 | Cn1ncc2ccc(CC3CC4(C3)CN(C(=O)[C@H]3C[C@@](C)(O)C3)C4)cc21 [Example 215, ((1s,3s)-3-Hydroxy-3-methylcyclobutyl)(6-((1-methyl-1H-indazol-6-yl)methyl)-2-azaspiro[3.3]heptan-2-yl)methanone] | 43 nM
8 | COc1ccccc1CC1CC2(C1)CN(C(=O)[C@H]1C[C@@](C)(O)C1)C2 [Example 216, ((1s,3s)-3-Hydroxy-3-methylcyclobutyl)(6-(2-methoxybenzyl)-2-azaspiro[3.3]heptan-2-yl)methanone] | 12 nM
9 | COc1ccc(CC2CC3(C2)CN(C(=O)[C@H]2C[C@@](C)(O)C2)C3)c(C(F)(F)F)c1 [Example 217, ((1s,3s)-3-Hydroxy-3-methylcyclobutyl)(6-(4-methoxy-2-(trifluoromethyl)benzyl)-2-azaspiro[3.3]heptan-2-yl)methanone] | 3.5 nM
10 | C[C@]1(O)C[C@@H](C(=O)N2CC3(CC(Cc4cccc(C5CC5)c4)C3)C2)C1 [Example 218, (6-(3-Cyclopropylbenzyl)-2-azaspiro[3.3]heptan-2-yl)((1s,3s)-3-hydroxy-3-methylcyclobutyl)methanone] | 6.3 nM
11 | C[C@]1(O)C[C@@H](C(=O)N2CC3(CC(Cc4ccc(C5CC5)cc4)C3)C2)C1 [Example 219, (6-(4-Cyclopropylbenzyl)-2-azaspiro[3.3]heptan-2-yl)((1s,3s)-3-hydroxy-3-methylcyclobutyl)methanone] | 1.2 nM
12 | C[C@]1(O)C[C@@H](C(=O)N2CC3(CC(Cc4ccc(OC(F)(F)F)cc4)C3)C2)C1 [Example 220, ((1s,3s)-3-Hydroxy-3-methylcyclobutyl)(6-(4-(trifluoromethoxy)benzyl)-2-azaspiro[3.3]heptan-2-yl)methanone] | 1.1 nM
13 | C[C@]1(O)C[C@@H](C(=O)N2CC3(CC(Cc4ccc(OC(F)F)cc4)C3)C2)C1 [Example 221, (6-(4-(Difluoromethoxy)benzyl)-2-azaspiro[3.3]heptan-2-yl)((1s,3s)-3-hydroxy-3-methylcyclobutyl)methanone] | 5.1 nM
14 | CCc1cccc(CC2CC3(C2)CN(C(=O)[C@H]2C[C@@](C)(O)C2)C3)c1 [Example 222, (6-(3-Ethylbenzyl)-2-azaspiro[3.3]heptan-2-yl)((1s,3s)-3-hydroxy-3-methylcyclobutyl)methanone] | 5.1 nM
15 | C[C@]1(O)C[C@@H](C(=O)N2CC3(CC(Cc4cccc(C(F)(F)F)n4)C3)C2)C1 [Example 223, ((1s,3s)-3-Hydroxy-3-methylcyclobutyl)(6-((6-(trifluoromethyl)pyridin-2-yl)methyl)-2-azaspiro[3.3]heptan-2-yl)methanone] | 169 nM
16 | Cn1ccc2ccc(CC3CC4(C3)CN(C(=O)[C@H]3C[C@@](C)(O)C3)C4)nc21 [Example 224, ((1s,3s)-3-Hydroxy-3-methylcyclobutyl)(6-((1-methyl-1H-pyrrolo[2,3-b]pyridin-6-yl)methyl)-2-azaspiro[3.3]heptan-2-yl)methanone] | 27 nM
17 | Cn1cc(CC2CC3(C2)CN(C(=O)[C@H]2C[C@@](C)(O)C2)C3)c(C(F)(F)F)n1 [Example 225, ((1s,3s)-3-Hydroxy-3-methylcyclobutyl)(6-((1-methyl-3-(trifluoromethyl)-1H-pyrazol-4-yl)methyl)-2-azaspiro[3.3]heptan-2-yl)methanone] | 119 nM
18 | Cc1cccc(C(F)(F)F)c1CC1CC2(C1)CN(C(=O)[C@H]1C[C@@](C)(O)C1)C2 [Example 226, ((1s,3s)-3-Hydroxy-3-methylcyclobutyl)(6-(2-methyl-6-(trifluoromethyl)benzyl)-2-azaspiro[3.3]heptan-2-yl)methanone] | 2.1 nM
19 | Cc1c(F)cccc1CC1CC2(C1)CN(C(=O)[C@H]1C[C@@](C)(O)C1)C2 [Example 227, (6-(3-Fluoro-2-methylbenzyl)-2-azaspiro[3.3]heptan-2-yl)((1s,3s)-3-hydroxy-3-methylcyclobutyl)methanone] | 20 nM
20 | Cc1cc(CC2CC3(C2)CN(C(=O)[C@H]2C[C@@](C)(O)C2)C3)ccc1F [Example 228, (6-(4-Fluoro-3-methylbenzyl)-2-azaspiro[3.3]heptan-2-yl)((1s,3s)-3-hydroxy-3-methylcyclobutyl)methanone] | 15 nM
21 | Cc1ccc(CC2CC3(C2)CN(C(=O)[C@H]2C[C@@](C)(O)C2)C3)cc1F [Example 229, (6-(3-Fluoro-4-methylbenzyl)-2-azaspiro[3.3]heptan-2-yl)((1s,3s)-3-hydroxy-3-methylcyclobutyl)methanone] | 12 nM
22 | Cc1ccc(CC2CC3(C2)CN(C(=O)[C@H]2C[C@@](C)(O)C2)C3)c(F)c1 [Example 230, (6-(2-Fluoro-4-methylbenzyl)-2-azaspiro[3.3]heptan-2-yl)((1s,3s)-3-hydroxy-3-methylcyclobutyl)methanone] | 6.4 nM
23 | C[C@]1(O)C[C@@H](C(=O)N2CC3(CC(Cc4cccc(C(F)F)c4)C3)C2)C1 [Example 231, (6-(3-(Difluoromethyl)benzyl)-2-azaspiro[3.3]heptan-2-yl)((1s,3s)-3-hydroxy-3-methylcyclobutyl)methanone] | 14 nM
24 | C[C@]1(O)C[C@@H](C(=O)N2CC3(CC(Cc4ccc(C(F)F)cc4)C3)C2)C1 [Example 232, (6-(4-(Difluoromethyl)benzyl)-2-azaspiro[3.3]heptan-2-yl)((1s,3s)-3-hydroxy-3-methylcyclobutyl)methanone] | 11 nM
